Blank lines part the entries; values can stand above or below the molecule they belong to.
What was measured:
[1] = system: M51 WT cells (carcinoma of stomach); test: SRB assay, M51 WT; assay type: cell-based, human; details: mean ± SD of at least three experiments
Method: (§5) Six unambiguously characterized tumor cell lines of human origin (native cell lines and those converted into resistant subclones) and two non-tumor cell lines are used for further investigations (table 2).
(§6) The sensitivity of the cell lines to the substance (Ic′) is determined in a so-called sulforhodamine B (SRB) assay.
(§7) The concentration of substance (Ic′) which inhibits cell growth by 50% (IC50, determined from semilogarithmic dose versus effect plots) are indicated.

[2] = system: M51 DDP cells (cisplatin resistant); test: SRB assay, M51 DDP; assay type: cell-based, human
Method: as §6, §7

[3] = system: HT29 WT cells (adenocarcinoma of colon); test: SRB assay, HT29 WT; assay type: cell-based, human
Method: as §6, §7

[4] = system: HT29 24R cells (5-FU resistant); test: SRB assay, HT29 24R; assay type: cell-based, human
Method: as §6, §7

[5] = system: HT29 SN38 cells (SN38 resistant); test: SRB assay, HT29 SN38; assay type: cell-based, human
Method: as §6, §7

[6] = system: HCT8 WT cells (carcinoma of colon); test: SRB assay, HCT8 WT; assay type: cell-based, human
Excerpt: The target cell used is, inter alia, a bowel cancer cell line of human origin (HCT8 WT).

[7] = system: HCT8 SN38 cells (SN38 resistant); test: SRB assay, HCT8 SN38; assay type: cell-based, human
Method: as §6, §7

[8] = system: HCT8 ICID cells (raltitrexed resistant); test: SRB assay, HCT8 ICID; assay type: cell-based, human
Method: as §6, §7

[9] = system: MCF-7 WT cells (adenocarcinoma of breast); test: SRB assay, MCF-7 WT; assay type: cell-based, human
Method: as §6, §7

[10] = system: MCF-7 AD cells (doxorubicin resistant gp 170+); test: SRB assay, MCF-7 AD; assay type: cell-based, human
Method: as §5, §6, §7

[11] = system: MCF-7 24R cells (5-FU resistant); test: SRB assay, MCF-7 24R; assay type: cell-based, human
Method: as §5, §6, §7

[12] = system: A2780 WT cells (adenocarcinoma of ovary); test: SRB assay, A2780 WT; assay type: cell-based, human
Method: as §5, §6, §7

[13] = system: A2780 DX5 cells (doxorubicin resistant gp 170+); test: SRB assay, A2780 DX5; assay type: cell-based, human; details: A2780 DX5, doxorubicin resistant gp 170+
Method: as §5, §6, §7

[14] = system: A2780 CP2 cells (cisplatin resistant); test: SRB assay, A2780 CP2; assay type: cell-based, human
Method: as §5, §6, §7

[15] = system: H460 WT cells (large-cell lung carcinoma); test: SRB assay, H460 WT; assay type: cell-based, human
Method: as §5, §6, §7

3T3 mouse fibroblasts = test: SRB assay, 3T3; assay type: cell-based; details: 3T3 mouse fibroblasts (non-tumor)
Method: as §5, §6, §7

[16] = system: MCR-5 diploid embryonic lung fibroblasts; test: SRB assay, MCR-5; assay type: cell-based; details: MCR-5 fibroblasts (non-tumor)
Method: as §5, §6, §7

topoisomerase I = target: T1, topoisomerase I (Homo sapiens, UniProt P11387); test: Topo I unwinding assay (pBR322 plasmid DNA, cell nucleus extract); assay type: biochemical; details: for concentration for in vitro topoisomerase I inhibition as multiple of the IC50 of tumor growth: multiple of the concentration inhibiting tumor cell growth by 50%
T1 construct: 160 ng of cell nucleus extract with the topoisomerase I present therein; endogenous in cells; host or cells: tumor cell lines (cell nucleus extract)
T1 sequence (P11387 1-765): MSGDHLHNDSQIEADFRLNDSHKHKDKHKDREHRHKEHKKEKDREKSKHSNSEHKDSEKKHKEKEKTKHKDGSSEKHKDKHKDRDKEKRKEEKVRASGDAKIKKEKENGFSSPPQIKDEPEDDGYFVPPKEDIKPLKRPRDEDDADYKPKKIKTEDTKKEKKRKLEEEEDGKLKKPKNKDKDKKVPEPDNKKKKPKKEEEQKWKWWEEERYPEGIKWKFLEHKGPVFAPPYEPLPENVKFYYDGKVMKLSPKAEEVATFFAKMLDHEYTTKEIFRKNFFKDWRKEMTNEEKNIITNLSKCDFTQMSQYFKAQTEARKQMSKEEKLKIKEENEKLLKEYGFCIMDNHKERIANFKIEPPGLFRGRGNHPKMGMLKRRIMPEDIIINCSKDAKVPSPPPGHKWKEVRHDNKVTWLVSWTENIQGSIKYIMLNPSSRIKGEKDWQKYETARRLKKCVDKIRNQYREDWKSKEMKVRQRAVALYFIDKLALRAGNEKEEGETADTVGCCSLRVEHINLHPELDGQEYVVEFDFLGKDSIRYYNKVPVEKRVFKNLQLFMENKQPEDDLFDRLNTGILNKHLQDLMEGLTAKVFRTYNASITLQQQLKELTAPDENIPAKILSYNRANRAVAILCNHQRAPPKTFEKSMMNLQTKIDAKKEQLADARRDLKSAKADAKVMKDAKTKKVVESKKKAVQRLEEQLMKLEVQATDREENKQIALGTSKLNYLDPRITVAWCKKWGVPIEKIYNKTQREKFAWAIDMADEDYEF
Excerpt: The effect of the substance (Ic′) on topoisomerase I is investigated by carrying out the so-called Topo I unwinding assay. The assay is based on an ATP-independent unwinding of twisted pBR322 plasmid DNA dimers by topoisomerase I. The two different topological forms of the plasmid DNA, the twisted form and unwound, relaxed form, are separated in this investigation by means of an agarose gel. The enzyme topoisomerase I is obtained for this purpose from cell nucleus extracts of the tumor cell lines.
Cell nucleus extracts are obtained by the method of Sullivan with the modifications of Danks et al.

[17] = system: HCT8 WT bowel cancer cells; test: Cell cycle analysis by flow cytometry (BrdU/PI); assay type: cell-based, human; details: IC50 concentration, 24 hours
Method: Flow cytometric investigations by an adapted method of Tsugita M. et al. are used for the analysis.
Exponentially growing HCT8 WT bowel cancer cells are treated with substance (Ic′) with the determined IC50 concentration for 24 hours, and then the cells are incubated with BrdU. The cells fixed with methanol are subjected to a treatment with a detergent (Triton X-100/HCl) in order to denature the DNA strands. After incubation with the fluorescence-labeled antibody (anti-BrdU mAb, FITC-labeled), the second fluorescent dye (PI, propidium iodide) is added.
The DNA content (propidium iodide fluorescence) and the amount of BrdU taken up (FITC fluorescence) are determined using a Coulter flow cytometer (Coulter EPICS XL). Exemplary results are depicted in FIG. 3a and 3b.
FIG. 3a and 3b show BrdU and PI uptakes into the DNA of HCT8 WT cells, untreated (control, […]) and treated with substance (Ic′) (IC50, 24 hours, FIG. 4b). The depicted results are representative of n=3 independent experiments.

[18] = system: H460 WT bronchial carcinoma cells; test: DNA double-strand breaks in [14C]d-thymidine-labeled cells, H460 WT; assay type: cell-based, human; details: up to 10 times the IC50 concentration, 6 hours
Method: (§1) DNA isolated after treatment of the cells for various times with substance (Ic′) is for this purpose analyzed by gel electrophoresis.
(§2) Determination of the DNA double-strand breaks is performed on ^14C-labeled DNA. For this purpose, [^14C]d-thymidine-labeled cells are treated with various concentrations of substance (Ic′). The DNA is isolated by an adapted method of Chia Chiao et al.
(§3) The DNA fractionated by gel electrophoresis is subsequently stained with ethidium bromide.
(§4) On a transilluminator (302 nm), the intact DNA which has not migrated in the electric field is separated from the fragmented DNA, which has thus migrated into the gel, by extraction. The isolated gel and DNA fragments are liquefied at +80° C. in the presence of hydrochloric acid. After addition of a scintillator it is possible to determine the radioactivity using a liquid scintillation meter (TPI-CARB 2100RT). The measured radioactivity is indicated in […] (cpm).
The results represent averages and their standard deviation from n=3 independent experiments.

[19] = system: HT29 WT colorectal carcinoma cells; test: DNA double-strand breaks, HT29 WT; assay type: cell-based, human
Method: as §1, §2, §3, §4

human telomerase = target: T2, human telomerase (Homo sapiens, UniProt O14746); test: Telomeric Repeat Amplification Assay (TRAP) ELISA; assay type: biochemical; details: at 50 μg/ml; telomerase from HCT8 WT cells; range 10 to 50 μg/ml tested
T2 construct: human telomerase obtained from cells of a colon carcinoma (HCT8 WT); endogenous in cells; host or cells: HCT8 WT colon carcinoma cells
T2 sequence (O14746 whole entry): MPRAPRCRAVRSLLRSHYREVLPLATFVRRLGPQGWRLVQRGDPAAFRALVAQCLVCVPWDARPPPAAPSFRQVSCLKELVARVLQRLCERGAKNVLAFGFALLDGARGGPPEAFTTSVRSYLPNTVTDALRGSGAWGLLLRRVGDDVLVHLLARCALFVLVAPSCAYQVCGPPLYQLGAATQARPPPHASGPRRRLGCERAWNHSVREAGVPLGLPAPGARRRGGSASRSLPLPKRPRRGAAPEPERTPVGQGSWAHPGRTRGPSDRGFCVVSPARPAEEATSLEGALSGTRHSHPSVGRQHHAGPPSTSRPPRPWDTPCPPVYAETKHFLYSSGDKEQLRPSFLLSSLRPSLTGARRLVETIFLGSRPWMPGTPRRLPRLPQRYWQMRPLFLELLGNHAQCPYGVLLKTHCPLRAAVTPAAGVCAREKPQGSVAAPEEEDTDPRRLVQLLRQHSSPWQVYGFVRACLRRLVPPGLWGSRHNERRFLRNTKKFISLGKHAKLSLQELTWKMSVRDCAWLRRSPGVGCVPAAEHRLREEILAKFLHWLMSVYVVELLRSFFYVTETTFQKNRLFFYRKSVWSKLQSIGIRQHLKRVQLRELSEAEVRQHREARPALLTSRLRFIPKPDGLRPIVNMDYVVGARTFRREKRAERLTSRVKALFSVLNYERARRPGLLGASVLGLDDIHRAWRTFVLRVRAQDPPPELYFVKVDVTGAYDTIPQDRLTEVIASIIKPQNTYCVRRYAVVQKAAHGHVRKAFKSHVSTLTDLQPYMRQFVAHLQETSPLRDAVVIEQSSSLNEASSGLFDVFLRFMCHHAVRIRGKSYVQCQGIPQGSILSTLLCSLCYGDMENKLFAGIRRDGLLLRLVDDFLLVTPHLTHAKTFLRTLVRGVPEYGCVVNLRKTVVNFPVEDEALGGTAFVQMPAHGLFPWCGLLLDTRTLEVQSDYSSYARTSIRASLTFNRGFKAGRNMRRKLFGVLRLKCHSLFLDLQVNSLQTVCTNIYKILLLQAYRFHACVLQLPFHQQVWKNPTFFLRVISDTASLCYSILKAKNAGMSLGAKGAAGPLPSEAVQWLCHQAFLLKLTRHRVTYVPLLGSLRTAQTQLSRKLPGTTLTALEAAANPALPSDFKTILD
T2 sequence (O60832 whole entry partner): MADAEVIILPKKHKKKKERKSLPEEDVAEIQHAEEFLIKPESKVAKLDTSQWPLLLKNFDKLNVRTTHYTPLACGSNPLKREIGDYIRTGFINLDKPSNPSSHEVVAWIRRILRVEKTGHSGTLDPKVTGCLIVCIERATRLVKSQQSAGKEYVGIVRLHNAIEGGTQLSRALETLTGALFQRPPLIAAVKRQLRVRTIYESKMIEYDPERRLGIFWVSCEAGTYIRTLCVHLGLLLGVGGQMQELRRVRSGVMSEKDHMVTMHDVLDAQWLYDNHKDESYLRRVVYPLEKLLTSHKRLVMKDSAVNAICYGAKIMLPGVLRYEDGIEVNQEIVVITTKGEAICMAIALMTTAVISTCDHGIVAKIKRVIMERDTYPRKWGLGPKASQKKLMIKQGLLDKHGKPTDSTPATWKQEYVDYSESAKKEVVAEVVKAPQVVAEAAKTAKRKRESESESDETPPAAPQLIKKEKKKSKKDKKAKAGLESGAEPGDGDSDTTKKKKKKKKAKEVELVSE
T2 sequence (Q9NX24 whole entry partner): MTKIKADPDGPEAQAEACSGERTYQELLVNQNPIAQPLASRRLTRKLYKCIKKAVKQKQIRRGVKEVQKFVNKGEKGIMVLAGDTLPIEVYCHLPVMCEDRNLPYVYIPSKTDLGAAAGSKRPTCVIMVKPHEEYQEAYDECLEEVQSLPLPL
T2 sequence (Q9NPE3 whole entry partner): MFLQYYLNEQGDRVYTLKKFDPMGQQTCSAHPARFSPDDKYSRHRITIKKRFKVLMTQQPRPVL
T2 sequence (Q9NY12 whole entry partner): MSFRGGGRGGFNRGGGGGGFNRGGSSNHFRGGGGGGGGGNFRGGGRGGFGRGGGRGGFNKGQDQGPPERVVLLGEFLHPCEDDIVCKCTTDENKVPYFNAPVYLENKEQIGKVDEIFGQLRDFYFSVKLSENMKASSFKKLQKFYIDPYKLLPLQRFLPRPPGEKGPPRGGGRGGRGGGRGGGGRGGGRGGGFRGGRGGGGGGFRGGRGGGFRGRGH
T2 sequence (Q9BUR4 whole entry partner): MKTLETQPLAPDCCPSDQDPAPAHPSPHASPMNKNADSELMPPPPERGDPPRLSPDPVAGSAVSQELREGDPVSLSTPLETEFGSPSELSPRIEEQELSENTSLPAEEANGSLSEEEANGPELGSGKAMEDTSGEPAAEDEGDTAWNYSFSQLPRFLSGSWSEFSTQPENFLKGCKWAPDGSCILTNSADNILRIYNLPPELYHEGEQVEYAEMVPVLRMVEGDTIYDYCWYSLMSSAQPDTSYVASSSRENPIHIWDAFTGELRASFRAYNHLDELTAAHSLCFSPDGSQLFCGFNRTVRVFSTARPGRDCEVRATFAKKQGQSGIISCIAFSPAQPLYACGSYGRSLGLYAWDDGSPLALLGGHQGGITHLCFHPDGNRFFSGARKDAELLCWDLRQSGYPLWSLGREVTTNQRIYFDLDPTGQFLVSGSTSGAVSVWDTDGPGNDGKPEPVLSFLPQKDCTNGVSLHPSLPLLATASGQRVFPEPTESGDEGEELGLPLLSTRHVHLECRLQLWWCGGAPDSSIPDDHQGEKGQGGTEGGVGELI
Method: The effect of substance (Ic′) on human telomerase is determined by carrying out the so-called Telomeric Repeat Amplification Assay (TRAP) ELISA, based on the method of N. W. Kim et al.
This method is based on use of the polymerase chain reaction (PCR). This entails, in a first step, a number of (GGTTAG) motifs being attached by means of the telomerase activity to the 3′ end of a biotin-labeled oligonucleotide (TS=telomerase substrate). In a second step, the products extended in this way are amplified by the PCR technique using TS and RP (R=reverse) primers. In this way, a “ladder” of products in increments of 6 bases (initial size=50 nucleotides) is generated. During the amplification, DNP-labeled dCTP is incorporated into the PCR products. Detection and quantification of the synthesized telomerase products using a sandwich ELISA method are a measure of the telomerase enzymatic activity.
The telomerase products carry the biotin-labeled TS primers and bind to the surface of microtiter plates previously coated with streptavidin. An anti-DIG antibody conjugated to POD binds to the […] nucleotides incorporated during the amplification. After addition of the substrate TMB, the telomerase activity is visualized by […] via the onset of the color reaction by the enzyme POD. In this case, the measured absorption is directly proportional to the telomerase activity. […]

Taq polymerase = Taq polymerase (Thermus aquaticus, UniProt P19821); test: TSR8 template control experiment (DNA polymerase); assay type: biochemical; details: maximum concentration 50 μg/ml
Taq polymerase, sequence (P19821 whole entry): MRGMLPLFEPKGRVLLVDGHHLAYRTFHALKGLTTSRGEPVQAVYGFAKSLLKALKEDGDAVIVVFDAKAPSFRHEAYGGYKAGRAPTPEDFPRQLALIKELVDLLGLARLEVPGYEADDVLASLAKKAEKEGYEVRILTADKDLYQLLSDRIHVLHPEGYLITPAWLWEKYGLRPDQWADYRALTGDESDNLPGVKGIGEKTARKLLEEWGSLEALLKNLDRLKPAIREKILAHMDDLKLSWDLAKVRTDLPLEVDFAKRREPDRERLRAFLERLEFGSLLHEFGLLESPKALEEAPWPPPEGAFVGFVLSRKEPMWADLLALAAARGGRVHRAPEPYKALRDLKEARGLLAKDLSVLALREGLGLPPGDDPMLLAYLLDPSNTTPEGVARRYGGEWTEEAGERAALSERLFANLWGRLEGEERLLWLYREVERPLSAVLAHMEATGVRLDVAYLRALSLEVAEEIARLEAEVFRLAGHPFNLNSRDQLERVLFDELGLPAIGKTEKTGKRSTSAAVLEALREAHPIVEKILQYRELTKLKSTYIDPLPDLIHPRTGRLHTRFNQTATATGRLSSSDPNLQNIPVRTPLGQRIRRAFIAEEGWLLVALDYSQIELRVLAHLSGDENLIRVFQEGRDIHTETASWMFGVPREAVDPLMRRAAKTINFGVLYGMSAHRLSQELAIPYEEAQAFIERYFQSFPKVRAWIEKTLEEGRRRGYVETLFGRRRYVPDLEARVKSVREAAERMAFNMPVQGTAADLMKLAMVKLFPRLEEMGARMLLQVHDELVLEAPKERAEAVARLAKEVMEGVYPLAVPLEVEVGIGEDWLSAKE
Method: In order to ensure the effect of substance (Ic′) on telomerase, an effect of substance (Ic′) on DNA polymerase must be ruled out. In a preliminary experiment with TSR8 as internal control, the effect of substance (Ic′) at various concentration levels was ruled out.
Amplification of the TSR8 template depends only on DNA polymerase. Every inhibitor of this enzyme can be detected using the substrate.
The experiment is carried out in triplicates.

[20] = system: ERK1/2 protein (MAP kinase); test: Western blot analysis of ERK1/2 phosphorylation; assay type: cell-based, human; details: HCT8 WT, detectable even at a dose corresponding to the IC50
Excerpt: Phosphorylation of certain signal transduction pathways plays an essential role in the regulation of cell growth and gene expression. The protein ERK1/2 (MAP kinase) belongs to the MAP kinase signal transduction pathway.
Treatment of human colon carcinoma cells (HCT8 WT) with substance (Ic′) leads to phosphorylation of this protein, which is detected in a Western blot analysis (FIG. 8).

[21] = system: HCT8 WT colon carcinoma cells
Method: In this case, tumor cells, e.g. colon carcinoma cells (HCT8 WT), are coincubated with both active ingredients in different dosages in each case for 24 hours (FIG. 9). FIG. 9 represents the coincubation experiment on the cytotoxicity with substance (Ic′) and a specific ERK1/2 inhibitor (MAP kinase inhibitor). HCT8 WT cells were coincubated. The points shown indicate the corresponding ratios (% of the respective IC50 concentration) of the two active ingredients to one another.

[22] = system: tumor cell lines (native and resistant subclones) and non-tumor cell lines
Method: as §5, §6, §7

Molecule: 1-Benzoyl-8,8-dimethyl-2-hydroxy-3,5,7-tris-(3-methyl-2-butenyl)bicyclo[3.3.1]non-2-ene-4,9-dione [Substance (Ic′)]
IC50 [1]: 5.70 ± 0.21 µg/mL
IC50 [2]: 4.77 ± 0.13 µg/mL
IC50 [3]: 5.25 ± 0.43 µg/mL
IC50 [4]: 5.18 ± 0.76 µg/mL
IC50 [5]: 3.50 ± 1.40 µg/mL
IC50 [6]: 4.23 ± 0.19 µg/mL
IC50 [7]: 4.07 ± 0.08 µg/mL
IC50 [8]: 4.44 ± 0.13 µg/mL
IC50 [9]: 4.37 ± 0.12 µg/mL
IC50 [10]: 4.28 ± 0.08 µg/mL
IC50 [11]: 3.30 ± 0.51 µg/mL
IC50 [12]: 9.20 ± 0.82 µg/mL
IC50 [13]: 6.75 ± 1.55 µg/mL
IC50 [14]: 6.23 ± 0.12 µg/mL
IC50 [15]: 4.21 ± 0.91 µg/mL
IC50 (3T3 mouse fibroblasts): >80.0 µg/mL
IC50 [16]: 21.73 ± 6.47 µg/mL
inhibition of topoisomerase I activity (topoisomerase I; at 100 μg/ml, 160 ng cell nucleus extract): 100%
concentration for in vitro topoisomerase I inhibition as multiple of the IC50 of tumor growth (topoisomerase I): 20 times
effect on the cell cycle (BrdU uptake) [17]: inhibition of the synthesis phase
induction of DNA double-strand breaks [18]: induces significant amounts of double-strand breaks
induction of DNA double-strand breaks [19]: induction of substantial amounts of double-strand breaks
inhibition of human telomerase (human telomerase): Complete inhibition
inhibition of Taq polymerase (TSR8 template) (Taq polymerase): does not lead to a significant inhibition
phosphorylation of the ERK1/2 protein [20]: dose-dependent phosphorylation
cytotoxicity on coincubation with a specific ERK1/2 inhibitor (MAP kinase inhibitor) [21]: pronounced synergism
effect of the combination on tumor cell growth ([21]; 30% of IC50 of substance (Ic′) with 30% of IC50 of the specific ERK1/2 inhibitor, HCT8 WT): inhibition of growth
cytotoxicity for the non-tumor cell lines compared with tumor cell lines [22]: considerably less
cross-resistance to the indicated cytostatics ([22]; resistant subclones vs native cell lines, SRB assay): no cross-resistance

concentration for in vitro topoisomerase I inhibition as multiple of the IC50 of tumor growth (topoisomerase I): 1000 times
Molecule: CC[C@@]1(O)C(=O)OCc2c1cc1n(c2=O)Cc2cc3c(CN(C)C)c(O)ccc3nc2-1 [topotecan, reference compound]

Reference: patent US7199161B2, “Substituted bicylo[3.3.1]nonan-2,4,9-triones as pharmaceutical active ingredients” (Diagenics International Corporation, priority 2002, dated 2007)
